Results from US10597388B2, “Pyridazinone herbicides” (FMC CORPORATION, priority 2014, dated 2020).

Tests used:
Test in all cases: Test C greenhouse herbicide test, pre- and postemergence
Assay type in all cases: in vivo
[1] = system: velvetleaf (Abutilon theophrasti)
Outline: (§1)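 Visual 0–100 injury score (100 = complete control) taken against untreated controls after 13–15 d in greenhouse. Test chemicals, formulated in solvent plus surfactant, applied preemergence to seeds in loam–sand soil or postemergence to 1- to 4-leaf plants (2–18 cm).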

[2] = system: foxtail, giant (giant foxtail, Setaria faberii)
Outline: as §1

[3] = system: barnyardgrass (Echinochloa crus-galli)
Outline: as §1

[4] = system: galium (catchweed bedstraw, Galium aparine)
Outline: as §1

[5] = system: wheat (winter wheat, Triticum aestivum)
Outline: as §1

[6] = system: nutsedge, yellow (yellow nutsedge, Cyperus esculentus)
Outline: as §1

[7] = system: blackgrass (Alopecurus myosuroides)
Outline: as §1

[8] = system: crabgrass, large (large crabgrass, Digitaria sanguinalis)
Outline: as §1

corn (Zea mays) = system: corn (Zea mays)
Outline: as §1

[9] = system: ryegrass, Italian (Italian ryegrass, Lolium multiflorum)
Outline: as §1

soybean (Glycine max) = system: soybean (Glycine max)
Outline: as §1

[10] = system: johnsongrass (Sorghum halepense)
Outline: as §1

[11] = Postemergence, 31 g ai/ha, scale 0 to 100 (0 no effect, 100 complete control)
[12] = Postemergence, 62 g ai/ha, 0 to 100 scale (0 no effect, 100 complete control)
[13] = Postemergence, 250 g ai/ha, scale 0 to 100, 0 no effect, 100 complete control, 13 to 15 d
[14] = Preemergence, 31 g ai/ha, scale 0 to 100, 0 is no effect, 100 is complete control
[15] = Preemergence, 62 g ai/ha, scale 0 to 100, 0 is no effect, 100 is complete control
[16] = Preemergence, 125 g ai/ha, scale 0 to 100, 0 is no effect, 100 is complete control
[17] = Preemergence, 250 g ai/ha, scale 0 to 100, 0 no effect, 100 complete control
[18] = postemergence, 125 g ai/ha, scale 0 to 100, 0 no effect, 100 complete control

CCC(=O)Oc1c(C)nn(C)c(=O)c1-c1ccc(Br)c2ccccc12 [Compound 134]
Plant response rating, Velvetleaf [1, 11]: 80
Velvetleaf plant response rating [1, 12]: 90
Plant response rating, Velvetleaf [1, 13]: 100
Plant response rating, Velvetleaf [1, 14]: 75
Plant response rating, Velvetleaf [1, 15]: 90
Plant response rating, Velvetleaf [1, 16]: 90
Velvetleaf plant response rating [1, 17]: 100
Velvetleaf plant response rating [1, 18]: 100
Plant response rating, Foxtail, Giant [2, 11]: 15
Foxtail, Giant plant response rating [2, 12]: 25
Plant response rating, Foxtail, Giant [2, 13]: 45
Plant response rating, Foxtail, Giant [2, 14]: 25
Plant response rating, Foxtail, Giant [2, 15]: 75
Plant response rating, Foxtail, Giant [2, 16]: 70
Foxtail, Giant plant response rating [2, 17]: 80
Foxtail, Giant plant response rating [2, 18]: 35
Plant response rating, Barnyardgrass [3, 11]: 10
Barnyardgrass plant response rating [3, 12]: 20
Plant response rating, Barnyardgrass ([3]; Postemergence, 125 g ai/ha, scale 0 to 100, 0 is no effect, 100 is complete control): 40
Plant response rating, Barnyardgrass [3, 13]: 55
Plant response rating, Barnyardgrass [3, 14]: 5
Plant response rating, Barnyardgrass [3, 15]: 40
Plant response rating, Barnyardgrass [3, 16]: 70
Barnyardgrass plant response rating [3, 17]: 90
Plant response rating, Galium [4, 11]: 95
Galium plant response rating [4, 12]: 95
Plant response rating, Galium [4, 13]: 100
Plant response rating, Galium [4, 14]: 100
Plant response rating, Galium [4, 15]: 98
Plant response rating, Galium [4, 16]: 98
Galium plant response rating [4, 17]: 98
Galium plant response rating [4, 18]: 100
Plant response rating, Wheat [5, 11]: 30
Wheat plant response rating [5, 12]: 50
Plant response rating, Wheat [5, 13]: 90
Plant response rating, Wheat [5, 14]: 0
Plant response rating, Wheat [5, 15]: 0
Plant response rating, Wheat [5, 16]: 15
Wheat plant response rating [5, 17]: 40
Wheat plant response rating [5, 18]: 65
Plant response rating, Nutsedge, Yellow [6, 11]: 75
Nutsedge, Yellow plant response rating [6, 12]: 80
Plant response rating, Nutsedge, Yellow [6, 13]: 90
Plant response rating, Nutsedge, Yellow [6, 14]: 30
Plant response rating, Nutsedge, Yellow [6, 15]: 45
Plant response rating, Nutsedge, Yellow [6, 16]: 95
Nutsedge, Yellow plant response rating [6, 17]: 90
Nutsedge, Yellow plant response rating [6, 18]: 95
Plant response rating, Blackgrass [7, 11]: 50
Blackgrass plant response rating [7, 12]: 45
Plant response rating, Blackgrass [7, 13]: 98
Plant response rating, Blackgrass [7, 14]: 20
Plant response rating, Blackgrass [7, 15]: 40
Plant response rating, Blackgrass [7, 16]: 40
Blackgrass plant response rating [7, 17]: 75
Blackgrass plant response rating [7, 18]: 50
Plant response rating, Crabgrass, Large [8, 11]: 5
Crabgrass, Large plant response rating [8, 12]: 10
Plant response rating, Crabgrass, Large [8, 13]: 40
Plant response rating, Crabgrass, Large [8, 14]: 5
Plant response rating, Crabgrass, Large [8, 15]: 30
Plant response rating, Crabgrass, Large [8, 16]: 40
Crabgrass, Large plant response rating [8, 17]: 60
Crabgrass, Large plant response rating [8, 18]: 15
Plant response rating, Corn (corn (Zea mays); [11]): 5
Corn plant response rating (corn (Zea mays); [12]): 10
Plant response rating, Corn (corn (Zea mays); [13]): 15
Plant response rating, Corn (corn (Zea mays); [14]): 0
Plant response rating, Corn (corn (Zea mays); [15]): 0
Plant response rating, Corn (corn (Zea mays); [16]): 10
Corn plant response rating (corn (Zea mays); [17]): 5
Corn plant response rating (corn (Zea mays); [18]): 10
Plant response rating, Ryegrass, Italian [9, 11]: 5
Ryegrass, Italian plant response rating [9, 12]: 15
Plant response rating, Ryegrass, Italian [9, 13]: 40
Plant response rating, Ryegrass, Italian [9, 14]: 98
Plant response rating, Ryegrass, Italian [9, 15]: 100
Plant response rating, Ryegrass, Italian [9, 16]: 100
Ryegrass, Italian plant response rating [9, 17]: 100
Ryegrass, Italian plant response rating [9, 18]: 20
Plant response rating, Soybean (soybean (Glycine max); [11]): 75
Soybean plant response rating (soybean (Glycine max); [12]): 70
Plant response rating, Soybean (soybean (Glycine max); [13]): 85
Plant response rating, Soybean (soybean (Glycine max); [14]): 40
Plant response rating, Soybean (soybean (Glycine max); [15]): 45
Plant response rating, Soybean (soybean (Glycine max); [16]): 65
Soybean plant response rating (soybean (Glycine max); [17]): 75
Soybean plant response rating (soybean (Glycine max); [18]): 70
Plant response rating, Johnsongrass [10, 11]: 10
Johnsongrass plant response rating [10, 12]: 10
Plant response rating, Johnsongrass [10, 13]: 25
Plant response rating, Johnsongrass [10, 14]: 0
Plant response rating, Johnsongrass [10, 15]: 5
Plant response rating, Johnsongrass [10, 16]: 5
Johnsongrass plant response rating [10, 17]: 5
Johnsongrass plant response rating [10, 18]: 5
